Measurements reported in patent US20080145409A1, “COMPOSITION FOR THE TREATMENT AND PREVENTION OF PEPTIC ULCER” (priority 2006, published 2008).
Where a name gives a salt, the structure may show the parent alone.

Tests used:
[1] = tested on: Helicobacter pylori-induced ulcers; assay: Helicobacter pylori-induced gastric ulceration in mice; format: in vivo, male CD-1 (Crl.) derived mice; conditions: for Ulceration Score Total: N=5 mice, day 8
Description: MIC-31 (Citronellol) and MIC-32 (Geraniol) were evaluated for their abilities to protect mice from the Helicobacter pylori-induced ulcers. MIC-31 was dosed at 50, 25, 12.5 and 6.25 mg/kg, P.O., as well as at 25 and 12.5 mg/kg, I.P. MIC-32 was dosed at 25 and 12.5 mg/kg, P.O. These dosing regimes were administered twice daily for 7 consecutive days beginning with the first dose given at one hour after Helicobacter pylori inoculation. On day 8, Gastric ulceration was scored as 0, 1, 2 or 3 (3 being most severe relative to vehicle control) according to the degree of hemorrhage and severity of lesions on the gastric mucosa. MIC-31 and MIC-32 were dissolved in 2% Tween 80 for oral (P.O.) and in 2% Tween 80/0.9% NaCl for intraperitoneal (I.P.) administration. MIC-31 at doses of 50, 25, 12.5, 6.25 mg/kg (P.O.) and 25, 12.5 mg/kg (I.P.), as well as MIC-32 at 25 and 12.5 mg/kg (P.O.), were administered to test animals twice daily for 7 consecutive days. The dosing volume was 10 ml/kg. Male CD-1 (Crl.) derived mice weighing 24±2 g were provided. Space allocation for 10 animals was 29×18×13 cm. Mice were housed in cages and maintained in a controlled temperature (22° C.-23° C.) and humidity (70%-80%) environment with 12 hours light dark cycles for at least one week prior to use. Free access to standard lab chow for mice and tap water was granted. Groups of 5 male CD-1 (Crl.) derived mice weighing 24±2 g, were fasted for 18 hours prior to intragastric inoculation of Helicobacter pylori in suspension at 9.5×10^9 CFU/0.4 ml/mouse. […] MIC-31 was also dosed intraperitoneally at 25 mg/kg and 12.5 mg/kg, starting also one hour after the Helicobacter pylori inoculation, twice daily for 7 consecutive days. Omeprazole 1 mg/kg and Clarithromycin 10 mg/kg, in combination, were used as positive controls and administered orally to test animals once daily for 7 consecutive days under the same treatment regime. Eight days after infection, all animals were fasted overnight and sacrificed. Each stomach was dissected along the greater curvature. Gastric ulceration was scored at four levels according to the degree of hemorrhage and severity of ulcerative lesions: 0=normal appearance, 1=mild red spots, 2=moderate red spots and/or hemorrhage spots, 3=marked hemorrhage spots. Reduction of ulceration score by 50 percent or more (≧50%) relative to vehicle control score values is considered significant. In addition, blood of each animal was collected from the retro-orbital sinus on day 8 and plasma sample was kept frozen at −80° C. until returned to the sponsor. Tissues of stomach and intestines were removed by surgical excision and immersed in 10% Neutral-Buffer formalin for histopathological examination.

[2] = tested on: gastric injury induced by ethanol; assay: Gastric ulcers induced by absolute ethanol in rats; format: in vivo, Sprague-Dawley derived male rats; conditions: for Average (gastric ulceration score 0-4): 30 min before absolute ethanol 1 ml/rat, scored 1 h later, 5 rats
Description: The purpose of this study was to investigate the effect of MIC31 (Citronellol) and its analogues/derivatives on gastric injury induced by ethanol in the rat. Gastric damage was produced by oral administration of absolute ethanol to rats. The severity of the ethanol-induced gastric damage varied considerably within the vehicle-treated group of rats which served as the negative controls.
Animals studied in this example were Sprague-Dawley derived Male Rats from Yung-Min Medical University Laboratory Animal Center. The age of these rats are 7 weeks old. Each group has 5 rats, and their body weight at arrival was 180±10 gm. Upon arrival, heath status of rats will undergo a minimum of one week acclimation period prior to the start of the experiment. At the first day of study, body weights are measured and the animals are grouped according to experiment design. The environmental conditions are listed below:
(10 ml/kg) to a group of 5 Sprague-Dawley derived male rats overnight fasted weighing 180±10 gm at 30 minutes before absolute ethanol challenge (1 ml/rat, P.O.). One hour later, the animals are sacrificed and the stomachs are opened along the greater curvature. Gastric ulceration is scored for degree of hemorrhage and severity of ulcerative lesions as follows: 0=no hyperemia or lesion […], 1=hyperemia, 2=one or two slight lesions, 3=more than two slight lesions, 4=more than two lesions or severe lesions. Reduction of concurrent control score values by 50 percent or more (≧50%) is considered significant. During the experimental phase, body weight will be documented.

[3] = PO 12.5 mg/kg x 2 x 7 days, score 0-3 each
[4] = PO 25 mg/kg x 2 x 7 days, score 0-3 each
[5] = 30 mg/kg P.O., 30 min before absolute ethanol, >=50% considered significant
[6] = 100 mg/kg P.O., 30 min before absolute ethanol, >=50% considered significant
[7] = Rattus norvegicus, po, 1 h, 30 mg/kg P.O., 30 min before absolute ethanol, >=50% considered significant, read-out: Reduction (%) of ulceration score vs concurrent vehicle control
[8] = Rattus norvegicus, po, 1 h, 100 mg/kg P.O., 30 min before absolute ethanol, >=50% considered significant, read-out: Reduction (%) of ulceration score vs concurrent vehicle control
[9] = Rattus norvegicus, po, 1 h, 300 mg/kg P.O., 30 min before absolute ethanol, >=50% considered significant, read-out: Reduction (%) of ulceration score vs concurrent vehicle control
[10] = 300 mg/kg P.O., 30 min before absolute ethanol, >=50% considered significant

`CC(C)=CCCC(C)CCO` (stereo not shown) [MIC-31, Citronellol] was tested, and the “Ulceration Score Total” value ([1]; IP 12.5 mg/kg x 2 x 7 days) was 2, the “Ulceration Score Total” value ([1]; IP 25 mg/kg x 2 x 7 days) was 8 and the “% Inhibition of ulceration score vs vehicle” value (shortened to “% Inhibition”) ([1]; IP 25 mg/kg x 2 x 7 days, >=50% significant) was 47%. For the same compound, the “Ulceration Score Total” value ([1]; PO 6.25 mg/kg x 2 x 7 days, score 0-3 each) was 11, the “% Inhibition” value ([1]; PO 6.25 mg/kg x 2 x 7 days, >=50% significant (in parentheses)) was 27% and the “Ulceration Score Total” value [1, 3] was 7. The “Ulceration Score Total” value [1, 4] was 3, the “Ulceration Score Total” value ([1]; PO 50 mg/kg x 2 x 7 days, score 0-3 each) was 2 and the “Average (gastric ulceration score 0-4)” value ([2]; 30 mg/kg P.O.) was 1. The “Reduction (%) of ulceration score vs concurrent vehicle control” value (“Reduction (%) of ulceration score” below) [2, 5] was 72%, the “Average (gastric ulceration score 0-4)” value ([2]; 100 mg/kg P.O.) was 0.4 and the “Reduction (%) of ulceration score” value [2, 6] was 89%. The “Protecting effect on stomach after challenge with absolute ethanol (in words)” value ([2]; single oral dose 30 min before alcohol challenge, rats) was “can inhibit the severity degree of hemorrhage and ulcerative lesions in stomach”.

`CC(C)=CCC/C(C)=C/CO` [MIC-32, Geraniol] was tested, and the “Ulceration Score Total” value [1, 3] was 13, the “% Inhibition” value ([1]; PO 12.5 mg/kg x 2 x 7 days, >=50% significant (in parentheses)) was 13% and the “Ulceration Score Total” value [1, 4] was 11. For the same compound, the “% Inhibition” value ([1]; PO 25 mg/kg x 2 x 7 days, >=50% significant (in parentheses)) was 27%.

`CC(C)=CCCC(C)CC(=O)O` (stereo not shown) [MIC-35, Citronellic acid] was tested, and the “Average (gastric ulceration score 0-4)” value ([2]; 30 mg/kg P.O.) was 2, the “Average (gastric ulceration score 0-4)” value ([2]; 100 mg/kg P.O.) was 1.6, and the “Average (gastric ulceration score 0-4)” value ([2]; 300 mg/kg P.O.) was 1.4. For the same compound, the inhibition in vivo at 30 mg/kg [2, 7] was 38%, the inhibition in vivo at 100 mg/kg [2, 8] was 50% and the inhibition in vivo at 300 mg/kg [2, 9] was 56%.

For `CC(C)=CCC[C@H](C)CCBr` [MIC-36, (s)-(+)-Citronellyl bromide], the “Average (gastric ulceration score 0-4)” value ([2]; 30 mg/kg P.O.) was 2, the “Average (gastric ulceration score 0-4)” value ([2]; 100 mg/kg P.O.) was 1.4 and the “Average (gastric ulceration score 0-4)” value ([2]; 300 mg/kg P.O.) was 1.6. It also gave an inhibition in vivo at 30 mg/kg [2, 7] of 33%, an inhibition in vivo at 100 mg/kg [2, 8] of 53% and an inhibition in vivo at 300 mg/kg [2, 9] of 47%.

In the case of `CC(C)=CCCC(C)CCOC(=O)C(C)C` (stereo not shown) [MIC-38, Citronellyl isobutryrate], the “Average (gastric ulceration score 0-4)” value ([2]; 30 mg/kg P.O.) was 3.2, the “Reduction (%) of ulceration score” value [2, 5] was 0% and the “Average (gastric ulceration score 0-4)” value ([2]; 100 mg/kg P.O.) was 1.8. The “Reduction (%) of ulceration score” value [2, 6] was 40%, the “Average (gastric ulceration score 0-4)” value ([2]; 300 mg/kg P.O.) was 1.2 and the “Reduction (%) of ulceration score” value [2, 10] was 60%.

`CC(=O)OCCC(C)CCC=C(C)C` (stereo not shown) [MIC-39, Citronellyl acetate] was tested, and the “Average (gastric ulceration score 0-4)” value ([2]; 30 mg/kg P.O.) was 2.4, the “Average (gastric ulceration score 0-4)” value ([2]; 100 mg/kg P.O.) was 0.8 and the “Average (gastric ulceration score 0-4)” value ([2]; 300 mg/kg P.O.) was 0.8. The inhibition in vivo at 30 mg/kg [2, 7] was 20%, the inhibition in vivo at 100 mg/kg [2, 8] was 73% and the inhibition in vivo at 300 mg/kg [2, 9] was 73%.

In the case of `CCC(=O)OCCC(C)CCC=C(C)C` (stereo not shown) [MIC-40, Citronellyl propionate], the “Average (gastric ulceration score 0-4)” value ([2]; 30 mg/kg P.O.) was 3.4, the “Average (gastric ulceration score 0-4)” value ([2]; 100 mg/kg P.O.) was 2.8 and the “Average (gastric ulceration score 0-4)” value ([2]; 300 mg/kg P.O.) was 1.2. The inhibition in vivo at 30 mg/kg [2, 7] was 6%, the inhibition in vivo at 100 mg/kg [2, 8] was 22% and the inhibition in vivo at 300 mg/kg [2, 9] was 67%.

With `CC(C)=CCCC(C)CCOC=O` (stereo not shown) [MIC-41, Citronellyl formate] the “Average (gastric ulceration score 0-4)” value ([2]; 30 mg/kg P.O.) was 3.2, the “Average (gastric ulceration score 0-4)” value ([2]; 100 mg/kg P.O.) was 1 and the “Average (gastric ulceration score 0-4)” value ([2]; 300 mg/kg P.O.) was 1.4. The inhibition in vivo at 30 mg/kg [2, 7] was 0%, the inhibition in vivo at 100 mg/kg [2, 8] was 69% and the inhibition in vivo at 300 mg/kg [2, 9] was 56%.

`CC(C)=CCCC(C)CCO` (stereo not shown) [MIC-42, Citronellol] was tested, and the “Average (gastric ulceration score 0-4)” value ([2]; 30 mg/kg P.O.) was 1.6, the “Reduction (%) of ulceration score” value [2, 5] was 53% and the “Average (gastric ulceration score 0-4)” value ([2]; 100 mg/kg P.O.) was 0.8. The “Reduction (%) of ulceration score” value [2, 6] was 76%, the “Average (gastric ulceration score 0-4)” value ([2]; 300 mg/kg P.O.) was 1.6 and the “Reduction (%) of ulceration score” value [2, 10] was 53%.

For `CC(C)=CCC[C@@H](C)CCBr` [MIC-43, (R)-(−)-Citronellyl bromide], the “Average (gastric ulceration score 0-4)” value ([2]; 30 mg/kg P.O.) was 2.4, the “Average (gastric ulceration score 0-4)” value ([2]; 100 mg/kg P.O.) was 1.6 and the “Average (gastric ulceration score 0-4)” value ([2]; 300 mg/kg P.O.) was 1.6. It also gave an inhibition in vivo at 30 mg/kg [2, 7] of 29%, an inhibition in vivo at 100 mg/kg [2, 8] of 53% and an inhibition in vivo at 300 mg/kg [2, 9] of 53%.

`C/C=C(\C)C(=O)OCCC(C)CCC=C(C)C` (stereo not shown) [MIC-44, Citronellyl tiglate] was tested, and the “Average (gastric ulceration score 0-4)” value ([2]; 30 mg/kg P.O.) was 2.8, the “Average (gastric ulceration score 0-4)” value ([2]; 100 mg/kg P.O.) was 1.8 and the “Average (gastric ulceration score 0-4)” value ([2]; 300 mg/kg P.O.) was 2.2. For the same compound, the inhibition in vivo at 30 mg/kg [2, 7] was 22%, the inhibition in vivo at 100 mg/kg [2, 8] was 50% and the inhibition in vivo at 300 mg/kg [2, 9] was 39%.

`CC(C)=CCCC(C)CCO` (stereo not drawn) [MIC-45, (−)-β-Citronellol] was tested, and the “Average (gastric ulceration score 0-4)” value ([2]; 30 mg/kg P.O.) was 2.6, the “Reduction (%) of ulceration score” value [2, 5] was 28% and the “Average (gastric ulceration score 0-4)” value ([2]; 100 mg/kg P.O.) was 1.2. The “Reduction (%) of ulceration score” value [2, 6] was 67%, the “Average (gastric ulceration score 0-4)” value ([2]; 300 mg/kg P.O.) was 1.6 and the “Reduction (%) of ulceration score” value [2, 10] was 83%.

In the case of `COc1ccc2[nH]c([S+]([O-])Cc3ncc(C)c(OC)c3C)nc2c1` (stereo not shown) [Omeprazole, reference compound], the “Average (gastric ulceration score 0-4)” value ([2]; 50 mg/kg P.O.) was 2.2 and the inhibition in vivo at 50 mg/kg ([2]; Rattus norvegicus, po, 1 h, 50 mg/kg P.O., 30 min before absolute ethanol, >=50% considered significant, read-out: Reduction (%) of ulceration score vs concurrent vehicle control) was 39%.
